≈ marks a conversion by molar mass, not a printed value. Where “and” joins values, the source holds several entries; their conditions need not be identical. Identical values can stand only once. Like-named read-outs stand apart in the source and are kept apart here.
How the values were obtained:
[1] = test system: E. coli MG1655 GyrA WT, ParC D79N; assay: microbe, parasite or virus in culture; type: cell-based; conditions: Escherichia coli
P. aeruginosa ATCC 27853 [2] = assay: MIC broth microdilution; type: cell-based; conditions: Pseudomonas aeruginosa, ATCC27853
P. aeruginosa ATCC 27853 [3] = conditions: >4× MIC; cited from earlier work
E. coli topoisomerase IV [4] = biological target: T1, E. coli topoisomerase IV (Escherichia coli, UniProt P0AFI2+P20083); assay: Topoisomerase IV cleavage-complex assay; type: biochemical
T1 construct: purchased Inspiralis
Method: (§1) Reactions were stopped by adding 3.8 μL of a stop solution containing 0.8 μL Proteinase K (20 mg/mL) and 3 μL SDS (2%), followed by incubation at 37 °C for 60 min. Afterward, 4 μL of STEB loading buffer was added, and samples were run on pre-stained 0.8% agarose gels containing 0.4 μg/mL ethidium bromide. […] The % nicked and linear DNA formed with varying compound concentrations was plotted for comparison.

E. coli wild-type strain = assay: MIC, wild-type strain; type: cell-based; conditions: Escherichia coli
P. aeruginosa BAA 2797 = assay: microbe, parasite or virus in culture; type: cell-based; conditions: Pseudomonas aeruginosa, BAA2797
K. pneumoniae = conditions: ref 6 (Hameed P et al., 2024); cited from earlier work
K. pneumoniae BAA 2784 = assay: microbe, parasite or virus in culture; type: cell-based; conditions: Klebsiella pneumoniae, BAA2784
[5] = test system: E. coli MG1655 GyrA M120A, ParC M118A; assay: microbe, parasite or virus in culture; type: cell-based; conditions: Escherichia coli
E. coli topoisomerase IV [6] = biological target: T1, E. coli topoisomerase IV; assay: biochemical; type: biochemical
P. aeruginosa ATCC 27853 [7] = conditions: 4× MIC
Method: Spontaneous resistance frequencies to BWC0977 were evaluated in E. coli ATCC 25922, P. aeruginosa ATCC 27853, and A. baumannii ATCC 19606. Mid-logarithmic phase cultures (~10^9 CFU/mL) were plated onto Luria-Bertani agar containing BWC0977 at 4×, 8×, and 16× the respective MICs. Plates were incubated at 37 °C for 24–36 h, and resistance frequencies were estimated by counting colony-forming units (CFUs) on the drug-containing plates. MICs of the isolated colonies were determined, and the gyrA, gyrB, parC, and parE genes were sequenced to assess for target-site mutations.

E. coli ATCC 25922 = assay: Resistant mutant generation by serial passage method; type: cell-based; conditions: Escherichia coli, read-out: MIC, serial passage
[8] = test system: E. coli MG1655 GyrA R121K, ParC WT; assay: microbe, parasite or virus in culture; type: cell-based; conditions: Escherichia coli
E. faecalis ATCC 29212 = assay: MIC broth microdilution; type: cell-based; conditions: Enterococcus faecalis, ATCC29212
[9] = biological target: E. coli GyrA M120K mutant gyrase (Escherichia coli, UniProt P0AES4+P0AES6, M120K); assay: biochemical; type: biochemical; conditions: for Gyrase supercoiling inhibition response: GyrA M120K gyrase
P. aeruginosa BAA 2794 = assay: microbe, parasite or virus in culture; type: cell-based; conditions: Pseudomonas aeruginosa, BAA2794
S. aureus = conditions: ref 6 (Hameed P et al., 2024); cited from earlier work
[10] = test system: E. coli MG1655 (GyrA WT, ParC WT); assay: microbe, parasite or virus in culture; type: cell-based; conditions: Escherichia coli
K. pneumoniae ATCC 13883 = assay: MIC broth microdilution; type: cell-based; conditions: Klebsiella pneumoniae, ATCC13883
[11] = biological target: E. coli GyrA D82N mutant gyrase (Escherichia coli, UniProt P0AES4+P0AES6, D82N); assay: biochemical; type: biochemical; conditions: for Gyrase supercoiling inhibition response: GyrA D82N gyrase
S. aureus gyrase = S. aureus gyrase (Staphylococcus aureus, UniProt P0A0K8+P20831); assay: biochemical
S. aureus ATCC 29213 = assay: MIC broth microdilution; type: cell-based; conditions: Staphylococcus aureus, ATCC29213
E. coli gyrase = biological target: T2, E. coli gyrase (Escherichia coli, UniProt P0AES4+P0AES6); type: biochemical; conditions: gyrase cleavage-complex assay
T2 construct: purchased Inspiralis
Method: as §1

[12] = compound 4.444 µM, source data Fig 6A/6B, 4.444 µM
[13] = compound 13.333 µM, source data Fig 6A/6B, 13.333 µM
[14] = compound 40 µM, source data Fig 6A/6B, 40 µM
[15] = compound 120 µM, source data Fig 6A/6B, 120 µM

SMILES: Cn1c(=O)ccc2ccc(F)c(CCNC[C@H]3CN(c4cnc5c(n4)NC(=O)CO5)C(=O)O3)c21 [BWC0977]
- MIC [1]: 0.03 µg/mL (≈ 0.064 µM)
- MIC (P. aeruginosa ATCC 27853 [2]): 0.125 µg/mL (≈ 0.267 µM)
- resistant colonies on exposure (P. aeruginosa ATCC 27853 [3]): no resistant colonies
- type of DNA breaks induced (E. coli topoisomerase IV [4]): single-strand DNA breaks
- MIC (E. coli wild-type strain): 0.01 µg/mL (≈ 0.0213 µM)
- MIC (P. aeruginosa BAA 2797): 0.25 µg/mL (≈ 0.534 µM)
- MIC90 against diverse global isolates (K. pneumoniae): 2 µg/mL (≈ 4.27 µM)
- MIC (K. pneumoniae BAA 2784): 0.125 µg/mL (≈ 0.267 µM)
- MIC [5]: 0.0625 µg/mL (≈ 0.133 µM)
- Topo IV decatenation inhibition response (E. coli topoisomerase IV [6]; E. coli topo IV, compound 0.008 μM, source data Fig 2A, listed as 977, 0.008 µM): 28.08 and 39.25
- inhibition at 0.008 µM (E. coli topoisomerase IV [6]; E. coli topo IV, compound 0.008 μM, source data Fig 2A, read-out: Topo IV decatenation inhibition response): 30.8%
- Topo IV decatenation inhibition response (E. coli topoisomerase IV [6]; E. coli topo IV, compound 0.074 μM, source data Fig 2A, listed as 977, 0.074 µM): 89.53 and 79.92
- inhibition at 0.074 µM (E. coli topoisomerase IV [6]; E. coli topo IV, compound 0.074 μM, source data Fig 2A, read-out: Topo IV decatenation inhibition response): 75.6%
- Topo IV decatenation inhibition response (E. coli topoisomerase IV [6]; E. coli topo IV, compound 0.222 μM, source data Fig 2A, listed as 977, 0.222 µM): 92.32 and 88.38
- inhibition at 0.222 µM (E. coli topoisomerase IV [6]; E. coli topo IV, compound 0.222 μM, source data Fig 2A, read-out: Topo IV decatenation inhibition response): 83.4%
- Topo IV decatenation inhibition response (E. coli topoisomerase IV [6]; E. coli topo IV, compound 2 μM, source data Fig 2A, listed as 977, 2 µM): 94.13 and 90.30
- inhibition at 2 µM (E. coli topoisomerase IV [6]; E. coli topo IV, compound 2 μM, source data Fig 2A, read-out: Topo IV decatenation inhibition response): 84.8%
- higher inhibition potency compared to compound 17a (E. coli topoisomerase IV [6]; E. coli topoisomerase IV): ~ 20 fold
- IC50 (E. coli topoisomerase IV [6]; read-out: IC50 E. coli topo IV decatenation): 0.013 ± 0.004 µM
- resistance frequency (P. aeruginosa ATCC 27853 [7]): less than 1 × 10^−9
- MIC (E. coli ATCC 25922; ATCC25922, 24 h): 0.015 µg/mL (≈ 0.032 µM)
- MIC (E. coli ATCC 25922; ATCC25922, 288 h): 0.125 µg/mL (≈ 0.267 µM)
- MIC [8]: 0.01 µg/mL (≈ 0.0213 µM)
- MIC (E. faecalis ATCC 29212): 0.03 µg/mL (≈ 0.064 µM)
- IC50 ([9]; Fig. 6, read-out: IC50 M120K gyrase supercoiling): 116 µM
- Gyrase supercoiling inhibition response [9, 12]: 22.36 and 14.93
- Gyrase supercoiling inhibition response [9, 13]: 30.98 and 24.28
- Gyrase supercoiling inhibition response [9, 14]: 42.55 and 34.32
- Gyrase supercoiling inhibition response [9, 15]: 58.34 and 49.21
- reduction in inhibition potency compared to wildtype gyrase ([9]; GyrA M120K vs WT): > 500 fold
- inhibition at 4.444 µM ([9]; read-out: Gyrase supercoiling inhibition response, GyrA M120K gyrase, compound 4.444 µM, source data Fig 6A/6B): 20.2%
- inhibition at 13.333 µM ([9]; read-out: Gyrase supercoiling inhibition response, GyrA M120K gyrase, compound 13.333 µM, source data Fig 6A/6B): 27.2%
- inhibition at 40 µM ([9]; read-out: Gyrase supercoiling inhibition response, GyrA M120K gyrase, compound 40 µM, source data Fig 6A/6B): 34.7%
- inhibition at 120 µM ([9]; read-out: Gyrase supercoiling inhibition response, GyrA M120K gyrase, compound 120 µM, source data Fig 6A/6B): 56.3%
- MIC (P. aeruginosa BAA 2794): 0.125 µg/mL (≈ 0.267 µM)
- MIC90 against diverse global isolates (S. aureus): 0.03 µg/mL (≈ 0.064 µM)
- MIC [10]: 0.03 µg/mL (≈ 0.064 µM)
- MIC (K. pneumoniae ATCC 13883): 0.06 µg/mL (≈ 0.128 µM)
- IC50 ([11]; Fig. 6, read-out: IC50 D82N gyrase supercoiling): 8.07 µM
- Gyrase supercoiling inhibition response [11, 12]: 46.06 and 47.14
- Gyrase supercoiling inhibition response [11, 13]: 41.37 and 59.15 and 62.03
- Gyrase supercoiling inhibition response [11, 14]: 73.59 and 74.94
- Gyrase supercoiling inhibition response [11, 15]: 87.19 and 87.16
- reduction in inhibition potency compared to wildtype gyrase ([11]; GyrA D82N vs WT): > 500 fold
- inhibition at 4.444 µM ([11]; read-out: Gyrase supercoiling inhibition response, GyrA D82N gyrase, compound 4.444 µM, source data Fig 6A/6B): 30.7%
- inhibition at 40 µM ([11]; read-out: Gyrase supercoiling inhibition response, GyrA D82N gyrase, compound 40 µM, source data Fig 6A/6B): 55.7%
- inhibition at 120 µM ([11]; read-out: Gyrase supercoiling inhibition response, GyrA D82N gyrase, compound 120 µM, source data Fig 6A/6B): 78.8%
- Gyrase supercoiling inhibition response (S. aureus gyrase; S. aureus gyrase, compound 0.0002 μM, source data Fig 2C, listed as 977, 0.0002 µM): 1.69 and 1.99
- inhibition at 0.0002 µM (S. aureus gyrase; S. aureus gyrase, compound 0.0002 μM, source data Fig 2C, read-out: Gyrase supercoiling inhibition response): 2.89%
- Gyrase supercoiling inhibition response (S. aureus gyrase; S. aureus gyrase, compound 0.001 μM, source data Fig 2C, listed as 977, 0.001 µM): 21.39 and 19.98
- inhibition at 0.001 µM (S. aureus gyrase; S. aureus gyrase, compound 0.001 μM, source data Fig 2C, read-out: Gyrase supercoiling inhibition response): 26.9%
- Gyrase supercoiling inhibition response (S. aureus gyrase; S. aureus gyrase, compound 0.004 μM, source data Fig 2C, listed as 977, 0.004 µM): 39.52 and 42.6
- inhibition at 0.004 µM (S. aureus gyrase; S. aureus gyrase, compound 0.004 μM, source data Fig 2C, read-out: Gyrase supercoiling inhibition response): 46.8%
- Gyrase supercoiling inhibition response (S. aureus gyrase; S. aureus gyrase, compound 0.012 μM, source data Fig 2C, listed as 977, 0.012 µM): 60.4 and 63.65
- inhibition at 0.012 µM (S. aureus gyrase; S. aureus gyrase, compound 0.012 μM, source data Fig 2C, read-out: Gyrase supercoiling inhibition response): 57.6%
- Gyrase supercoiling inhibition response (S. aureus gyrase; S. aureus gyrase, compound 0.037 μM, source data Fig 2C, listed as 977, 0.037 µM): 62.46 and 64.07
- inhibition at 0.037 µM (S. aureus gyrase; S. aureus gyrase, compound 0.037 μM, source data Fig 2C, read-out: Gyrase supercoiling inhibition response): 66.3%
- Gyrase supercoiling inhibition response (S. aureus gyrase; S. aureus gyrase, compound 0.111 μM, source data Fig 2C, listed as 977, 0.111 µM): 73.28 and 76.49
- inhibition at 0.111 µM (S. aureus gyrase; S. aureus gyrase, compound 0.111 μM, source data Fig 2C, read-out: Gyrase supercoiling inhibition response): 70.2%
- Gyrase supercoiling inhibition response (S. aureus gyrase; S. aureus gyrase, compound 0.333 μM, source data Fig 2C, listed as 977, 0.333 µM): 87.57 and 81.68
- inhibition at 0.333 µM (S. aureus gyrase; S. aureus gyrase, compound 0.333 μM, source data Fig 2C, read-out: Gyrase supercoiling inhibition response): 84%
- Gyrase supercoiling inhibition response (S. aureus gyrase; S. aureus gyrase, compound 1 μM, source data Fig 2C, listed as 977, 1 µM): 89.66 and 78.1
- inhibition at 1 µM (S. aureus gyrase; S. aureus gyrase, compound 1 μM, source data Fig 2C, read-out: Gyrase supercoiling inhibition response): 91.1%
- Gyrase supercoiling inhibition response (S. aureus gyrase; S. aureus gyrase, compound 3 μM, source data Fig 2C, listed as 977, 3 µM): 98.25 and 99.54
- inhibition at 3 µM (S. aureus gyrase; S. aureus gyrase, compound 3 μM, source data Fig 2C, read-out: Gyrase supercoiling inhibition response): 94.8%
- IC50 (S. aureus gyrase; Supplementary Fig 1G): 0.009 µM
- MIC (S. aureus ATCC 29213): 0.007 µg/mL (≈ 0.0149 µM)
- type of DNA breaks induced (E. coli gyrase): single-strand DNA breaks

Source: publication PMC12647645, “Structural interactions of BWC0977 with Klebsiella pneumoniae topoisomerase IV and biochemical basis of its broad-spectrum activity” (Communications Biology, 2025)
